Settings: 0.1 mM, 1 mM, 10 mM, 20 mM citric acid vs 0 mM; Rituximab Protein A eluate 1.4 mg/mL, 0.02% (w/v) PS80, pH 6; 2 weeks and 4 weeks at 40° C.
Procedure: A formulation buffer containing 25 mM L-His/L-His HCl at pH 6.0, 600 mM sucrose and 0.05% (w/v) PS80 was prepared. The solution was filtered over a 0.22 μm PVDF Durapore® sterile filter.
A second solution of 40 mM citric acid at pH 6.0 was prepared and filtered over a 0.22 μm PVDF Durapore® sterile filter. In addition to the 40 mM citric acid stock solution, dilutions of the 40 mM citric acid solution at a target concentration of 20 mM, 2 mM and 0.2 mM using water were prepared.
Five protein formulation samples were prepared each by spiking 320 μL of the downstream purification sample (Rituximab Protein A eluate, 18 g/L) into 1680 μL of the above prepared formulation buffer in five different particle-free Nalgene bottles. […]
Analyzing polysorbate degradation in protein formulation samples 1.2 mL of each of the protein formulation sample were aliquoted into particle-free Nalgene tubes and placed into a 40° C. stability chamber. The samples were analysed after 2 week and 4 weeks of incubation using HPLC-FMA against a standard curve of intact PS80 in water.
The HPLC-FMA measurement was performed using a high-performance liquid chromatography (HPLC) system (Waters Alliance e2695) equipped with an isocratic pump, fluorescence detector (Waters 2475 FLR Detector), auto sampler and knitted reaction coil 1 mL (Supelco #57410-U). […] Fluorescence was measured at λex=350 nm and λem=420 nm. […]

O=C(O)CC(O)(CC(=O)O)C(=O)O [citric acid, Citric acid monohydrate]
PS80 concentration / polysorbate degradation in protein formulation: effective in reducing polysorbate degradation
